Assay results as given in ChEMBL document CHEMBL4334442, “Effects of Acetylshikonin on the Infection and Replication of Coxsackievirus A16 in Vitro and in Vivo” (J Nat Prod, 2019).

Tests used:
[1] = Cytotoxicity against human RD cells assessed as reduction in cell viability after 12 hrs by CCK8 assay; type: cell-based
Coxsackievirus A16 = assay: Antiviral activity against Coxsackievirus A16 TA271 infected in human RD cells assessed as inhibition of virus-induced cytopathic effect preincubated with viral suspension for 2 hrs followed by cell addition and measured after 24 hrs by CCK-8 assay; type: functional, cell-based
[2] = Selectivity index, ratio of CC50 for cytotoxicity against human RD cells to EC50 for antiviral activity against Coxsackievirus A16 TA271 infected in human RD cells; type: toxicity, cell-based; details: read-out: Ratio CC50/EC50

SMILES: NC(=O)c1ncn([C@@H]2O[C@H](CO)[C@@H](O)[C@H]2O)n1 [RIBAVIRIN]
- CC50 at 12 h [1]: 1480 µM
- Activity (Coxsackievirus A16): Dose-dependent effect
- EC50 (Coxsackievirus A16; Enterovirus A): 144 µM
- selectivity ratio [2]: 10.3
